Tests used:
Assay type in all cases: functional
Conditions in all cases: read-out: GI
[1] = system: Brassica rapa subsp. oleifera; assay: Herbicidal activity against Brassica rapa subsp. oleifera assessed as inhibition of root growth at 100 ug/ml after 65 hr by rape cup test
[2] = system: Echinochloa crus-galli; assay: Herbicidal activity against Echinochloa crus-galli (barnyard grass) plants assessed as inhibition of seedling growth at 1000 ug/ml after 65 hr by barnyard cup test
[3] = system: Echinochloa crus-galli; assay: Herbicidal activity against Echinochloa crus-galli (barnyard grass) plants assessed as inhibition of seedling growth at 100 ug/ml after 65 hr by barnyard cup test
[4] = system: Brassica rapa subsp. oleifera; assay: Herbicidal activity against Brassica rapa subsp. oleifera assessed as inhibition of root growth at 1000 ug/ml after 65 hr by rape cup test

SMILES	inhibition of growth at 100 µg/mL [1] [%]	inhibition of growth at 1000 µg/mL [2] [%]	inhibition of growth at 100 µg/mL [3] [%]	inhibition of growth at 1000 µg/mL [4] [%]
COc1cc(OC)c2c(c1)O/C(=C\c1cccc(F)c1)C2=O	57.8	43.8	14.4	82.1
COc1cc(/C=C2\Oc3cc(O)cc(O)c3C2=O)cc(OC)c1OC	0	68.7	5.2	83.8
Cc1ccc(/C=C2\Oc3cc(O)cc(O)c3C2=O)cc1	44.3	44.2	5	78.2
O=C1/C(=C/c2ccc(F)cc2)Oc2cc(O)cc(O)c21	39.1	20	5	42.3
CC(C)(C)c1ccc(/C=C2\Oc3cc(O)cc(O)c3C2=O)cc1	9.5	39.6	1.5	87.5
COc1ccc(/C=C2\Oc3cc(O)cc(O)c3C2=O)cc1	63.7	28.8	10	90.8
O=C1/C(=C/c2ccc(O)cc2)Oc2cc(O)cc(O)c21	55.2	57.9	15	72.1
COc1cc(/C=C2\Oc3cc(O)cc(O)c3C2=O)ccc1OCc1ccccc1	46.8	38.6	9.7	87.9
COc1cc(/C=C2\Oc3cc(O)cc(O)c3C2=O)cc(OC)c1OCc1ccccc1	48.8	36.9	15.2	75.9
COc1cc(OC)c2c(c1)O/C(=C\c1cccc(OC)c1OC)C2=O	34.7	42.6	25.5	51.4
COc1cc(OC)c2c(c1)O/C(=C\c1ccc(OCc3ccccc3)c(OC)c1)C2=O	54	44.4	8.4	68
CCOc1cc(OCC)c2c(c1)O/C(=C\c1ccc(OC)cc1)C2=O	0	35	10	17.7
COc1cc(/C=C2\Oc3cc(OC(=O)c4ccccc4)cc(OC(=O)c4ccccc4)c3C2=O)cc(OC)c1OCc1ccccc1	47.6	19.6	5	77.1
COc1ccc(/C=C2\Oc3cc(OC)c(C)c(OC)c3C2=O)cc1OC	40.1	51.8	16.8	83.8
COc1cc2c(c(OC)c1C)C(=O)/C(=C/c1ccc(F)cc1)O2	46.6	15	0	59
COc1cc2c(c(OC)c1C)C(=O)/C(=C/c1ccc(OCc3ccccc3)cc1)O2	14.2	40.8	2.3	91.9
COc1ccc(/C=C2\Oc3cc(O)cc(O)c3C2=O)cc1OC	48	48.1	12.3	82.6
COc1cc(/C=C2\Oc3cc(O)cc(O)c3C2=O)cc(OC)c1O	0	10	5	0
O=C1/C(=C/c2ccc3c(c2)OCO3)Oc2cc(O)cc(O)c21	0	10	5	8.7

From ChEMBL document CHEMBL3046252, “Synthesis and herbicidal potential of substituted aurones” (2012)
